≈ marks a conversion by molar mass, not a printed value. Where two headings read alike, the source gives them in different places. Where a SMILES comes first, the peptide text is derived from it. Bridges are numbered along the chain shown (N, C = ends). [ ]: non-standard residue; d: D form. The star is where a group is joined. X1 = CC[C@H](C)CCCCC(=O)*; Dab = NCC[C@H](N)C(=O)O
What was measured:
over 200 strains = details: 0.002% polysorbate added; cited from earlier work
Description: Members of the lipopeptide polymyxin class of antibiotics (polymyxin B [compound 7a] and polymyxin E [or colistin, compound 7b]) are important last-line therapeutic agents against many multidrug-resistant Gram-negative bacteria ([27][–][31]). They consist of an N-terminal fatty acid side chain that is attached to a polycationic deca-peptide backbone (Fig. 1) with physicochemical properties similar to those of the lipoglycopeptides. These structural features confer amphipathicity, which is a key feature of many other cationic antimicrobial peptides (CAMPs) ([32][–][34]). As mentioned earlier, p ...

E. coli = details: literature value; cited from earlier work
K. pneumoniae ATCC 13883 = test: microbe, parasite or virus in culture; details: n = 2
Experimental: (§1) A positive control of a row of just the bacteria and a negative control of only the medium were included for every plate tested.
(§2) The compounds along with standard antibiotics were serially diluted 2-fold across the 96-well plates. […] A sample of each culture was then diluted 40-fold in fresh MH broth (in presence and absence of Tween) and incubated at 37°C for 2 to 3 h.

P. aeruginosa ATCC 10145 = test: microbe, parasite or virus in culture; details: n = 2
Experimental: as §1, §2

A. baumannii ATCC 19606 = test: microbe, parasite or virus in culture; details: n = 2
Experimental: as §1, §2

E. coli ATCC 25922 = test: microbe, parasite or virus in culture
Experimental: as §1, §2
(§3) For experiments in the presence of surfactant, 2% beractant (25 mg/ml) was added to the mid-log-phase cultures and mixed gently and added to all the 96-well plates. For experiments in the presence of serum, a mixture of 50% of human serum along with 50% MHB was prepared and used throughout the experiment.

[1] = cited from earlier work
Description: Other assay additives can affect MIC values. […] Plasma protein binding has been implicated as a major factor limiting the active free concentration of many clinically important antibiotics ([37][–][42]).

[2] = cited from earlier work; for concentration found, % of that expected: PS microtiter plates, [14C]oritavancin
Experimental: (§4) The majority of antibiotic stock solutions for testing are prepared in water, phosphate buffer, or pH-adjusted aqueous solution (106 out of 139 reported in CLSI M100 [see Table 6A, “Solvents and diluents for preparation of stock solutions of antimicrobial agents”]) ([3]). […] Furthermore, the CLSI reference MIC quality control range tabulated for dalbavancin an ...

[3] = cited from earlier work; remark: listed apart in the source
Description: Other assay additives can affect MIC values. […] This in turn translates into reduced ...

MRSA = details: literature value; cited from earlier work
Description: TABLE 1 Literature MIC values for tested antibiotics | column: MIC (µg/ml) (reference[s]) / MRSA

S. pyogenes ATCC 12344 = details: ATCC 12344
Experimental: as §1, §2

S. aureus ATCC 29123 = details: cited from earlier work
Experimental: as §4

E. faecalis ATCC 29212 = test: microbe, parasite or virus in culture; details: Corning NBS; MHB +T80; n = 2
Experimental: as §1, §2

[4] = test system: S. aureus GISA NRS 2; ATCC 700698; test: microbe, parasite or virus in culture; details: Corning NBS; MHB -T80; n = 2
Experimental: as §1, §2

MRSA ATCC 43300 = details: n = 2
Experimental: as §1, §2, §3

Molecule: CC[C@H](C)CCCCC(=O)N[C@@H](CCN)C(=O)N[C@H](C(=O)N[C@@H](CCN)C(=O)N[C@H]1CCNC(=O)[C@H]([C@@H](C)O)NC(=O)[C@H](CCN)NC(=O)[C@H](CCN)NC(=O)[C@H](CC(C)C)NC(=O)[C@@H](Cc2ccccc2)NC(=O)[C@H](CCN)NC1=O)[C@@H](C)O [Polymyxin B, polymyxin B] (X1-[Dab]T[Dab][Dab][Dab][dF]L[Dab][Dab]T; lactam 4-C (inferred); N-terminus assumed)
- more potent MICs with surfactant present (over 200 strains): 4- to 8 fold
- MIC (literature) (E. coli): 0.25–1 ([73]) µg/ml
- MIC (K. pneumoniae ATCC 13883; Corning NBS, MHB +T80): ≤ 0.03 µg/mL
- MIC (K. pneumoniae ATCC 13883; Corning NBS, MHB -T80): 0.03 to 0.125 µg/mL
- MIC (K. pneumoniae ATCC 13883; Corning PS, MHB +T80): 0.03 to 0.06 µg/mL
- MIC (K. pneumoniae ATCC 13883; Corning PS, MHB -T80): 0.06 to 0.25 µg/mL
- MIC (K. pneumoniae ATCC 13883; Corning TC, MHB +T80): 1 µg/mL (≈ 0.831 µM)
- MIC (K. pneumoniae ATCC 13883; Corning TC, MHB -T80): 1 µg/mL (≈ 0.831 µM)
- MIC (P. aeruginosa ATCC 10145; Corning NBS, MHB +T80): 0.03 to 0.125 µg/mL
- MIC (P. aeruginosa ATCC 10145; Corning NBS, MHB -T80): 0.03 to 0.06 µg/mL
- MIC (P. aeruginosa ATCC 10145; Corning PS, MHB +T80): 0.5 to 1 µg/mL
- MIC (P. aeruginosa ATCC 10145; Corning PS, MHB -T80): 0.25 to 1 µg/mL
- MIC (P. aeruginosa ATCC 10145; Corning TC, MHB +T80): 2 to 4 µg/mL
- MIC (P. aeruginosa ATCC 10145; Corning TC, MHB -T80): 1 to 4 µg/mL
- MIC (A. baumannii ATCC 19606; Corning NBS, MHB +T80): ≤ 0.03 µg/mL
- MIC (A. baumannii ATCC 19606; Corning NBS, MHB -T80): ≤ 0.03 µg/mL
- MIC (A. baumannii ATCC 19606; Corning PS, MHB +T80): ≤ 0.03 µg/mL
- MIC (A. baumannii ATCC 19606; Corning PS, MHB -T80): 0.06 to 0.125 µg/mL
- MIC (A. baumannii ATCC 19606; Corning TC, MHB +T80): 2 to 4 µg/mL
- MIC (A. baumannii ATCC 19606; Corning TC, MHB -T80): 0.5 to 1 µg/mL
- MIC (E. coli ATCC 25922; Corning NBS, MH + 2% LHB, 2% LS, n = 2): ≤0.03 µg/mL
- MIC (E. coli ATCC 25922; Corning NBS, MH + 2% LHB, 50% HS, n = 2): ≤0.03 µg/mL
- MIC (E. coli ATCC 25922; Corning NBS, MH + 2% LHB, no additive, n = 2): ≤0.03 µg/mL
- MIC (E. coli ATCC 25922; Corning NBS, MH + T80, 2% LS, n = 2): ≤0.03 µg/mL
- MIC (E. coli ATCC 25922; Corning NBS, MH + T80, 50% HS, n = 2): 0.03 to 0.06 µg/mL
- MIC (E. coli ATCC 25922; Corning NBS, MH, 2% LS, n = 2): ≤0.03 µg/mL
- MIC (E. coli ATCC 25922; Corning NBS, MH, 50% HS, n = 2): ≤0.03 µg/mL
- MIC (E. coli ATCC 25922; Corning PS plate, MHB +0.002% T80, no further additive, n = 2): 0.03 to 0.25 µg/mL
- MIC (E. coli ATCC 25922; Corning PS plate, MHB −T80, no additive, n = 2): 0.06 µg/mL (≈ 0.0499 µM)
- MIC (E. coli ATCC 25922; Corning PS, MH + 2% LHB, 2% LS, n = 2): 0.06 µg/mL
- MIC (E. coli ATCC 25922; Corning PS, MH + 2% LHB, 50% HS, n = 2): 0.03 to 0.06 µg/mL
- MIC (E. coli ATCC 25922; Corning PS, MH + 2% LHB, no additive, n = 2): 2 to 8 µg/mL
- MIC (E. coli ATCC 25922; Corning PS, MH + T80, 2% LS, n = 2): 0.06 to 0.125 µg/mL
- MIC (E. coli ATCC 25922; Corning PS, MH + T80, 50% HS, n = 2): 0.03 to 0.06 µg/mL
- MIC (E. coli ATCC 25922; Corning PS, MH, 2% LS, n = 2): 0.06 to 0.125 µg/mL
- MIC (E. coli ATCC 25922; Corning PS, MH, 50% HS, n = 2): ≤0.03 µg/mL
- MIC (E. coli ATCC 25922; Corning TC plate, MHB +0.002% T80, no further additive, n = 2): 2 µg/mL (≈ 1.66 µM)
- MIC (E. coli ATCC 25922; Corning TC plate, MHB −T80, no additive, n = 2): 1 to 2 µg/mL
- MIC (E. coli ATCC 25922; Corning TC, MH + 2% LHB, 2% LS, n = 2): 2 to 8 µg/mL
- MIC (E. coli ATCC 25922; Corning TC, MH + 2% LHB, 50% HS, n = 2): 4 µg/mL
- MIC (E. coli ATCC 25922; Corning TC, MH + 2% LHB, no additive, n = 2): 0.125 µg/mL
- MIC (E. coli ATCC 25922; Corning TC, MH + T80, 2% LS, n = 2): 2 to 4 µg/mL
- MIC (E. coli ATCC 25922; Corning TC, MH + T80, 50% HS, n = 2): 1 to 4 µg/mL
- MIC (E. coli ATCC 25922; Corning TC, MH, 2% LS, n = 2): 4 µg/mL (≈ 3.32 µM)
- MIC (E. coli ATCC 25922; Corning TC, MH, 50% HS, n = 2): 0.25 to 0.5 µg/mL
- MIC (E. coli ATCC 25922; NBS plates): ≤ 0.03 µg/mL
- MIC (E. coli ATCC 25922; Nunc PS plate, MHB +0.002% T80, n = 2): 0.03 to 0.06 µg/mL
- MIC (E. coli ATCC 25922; Nunc PS plate, MHB −T80, n = 2): 0.125 to 0.25 µg/mL
- MIC (E. coli ATCC 25922; Nunc U TC plate, MHB +0.002% T80, n = 2): 2 to 4 µg/mL
- MIC (E. coli ATCC 25922; Nunc U TC plate, MHB −T80, n = 2): 1 to 4 µg/mL
- MIC (E. coli ATCC 25922; Nunc flat TC plate, MHB +0.002% T80, n = 2): 2 µg/mL (≈ 1.66 µM)
- MIC (E. coli ATCC 25922; Nunc flat TC plate, MHB −T80, n = 2): 1 µg/mL (≈ 0.831 µM)
- MIC (E. coli ATCC 25922; Trek PS plate, MHB +0.002% T80, no further additive, n = 2): 0.03 to 0.06 µg/mL
- MIC (E. coli ATCC 25922; Trek PS plate, MHB −T80, no additive, n = 2): 0.06 to 0.125 µg/mL
- MIC (E. coli ATCC 25922; Trek PS, MH + 2% LHB, 2% LS, n = 2): ≤0.03 µg/mL
- MIC (E. coli ATCC 25922; Trek PS, MH + 2% LHB, 50% HS, n = 2): ≤0.03 µg/mL
- MIC (E. coli ATCC 25922; Trek PS, MH + 2% LHB, no additive, n = 2): 0.03 to 0.25 µg/mL
- MIC (E. coli ATCC 25922; Trek PS, MH + T80, 2% LS, n = 2): 0.03 to 0.06 µg/mL
- MIC (E. coli ATCC 25922; Trek PS, MH + T80, 50% HS, n = 2): 0.03 to 0.125 µg/mL
- MIC (E. coli ATCC 25922; Trek PS, MH, 2% LS, n = 2): 0.5 to 1 µg/mL
- MIC (E. coli ATCC 25922; Trek PS, MH, 50% HS, n = 2): ≤0.03 µg/mL
- protein binding ([1]; literature values, reference given): 50 to 60%

Molecule: oritavancin
- concentration found, % of that expected ([2]; 1 µg/ml): < 10%
- concentration found, % of that expected ([2]; 4 µg/ml): 35%
- concentration found, % of that expected ([2]; 16 µg/ml): approximately 70%
- underestimation of MIC values in the absence of added polysorbate 80 [2]: 16- to 32 fold
- half-life ([3]; in vivo): 240 to 408 h
- protein binding [1]: 82 to 90%

Molecule: CN[C@H]1C(=O)N[C@@H]2Cc3ccc(cc3)Oc3cc4cc(c3O[C@@H]3O[C@H](C(=O)O)[C@@H](O)[C@H](O)[C@H]3NC(=O)CCCCCCCCC(C)C)Oc3ccc(cc3Cl)[C@@H](O)[C@@H]3NC(=O)[C@H](NC(=O)[C@@H]4NC(=O)[C@@H](NC2=O)c2cc(cc(O)c2Cl)Oc2cc1ccc2O)c1ccc(O)c(c1)-c1c(O[C@H]2O[C@H](CO)[C@@H](O)[C@H](O)[C@@H]2O)cc(O)cc1[C@@H](C(=O)NCCCN(C)C)NC3=O [Dalbavancin, dalbavancin]
- MIC (literature) (MRSA): 0.06 ([68], [69]) µg/ml
- MIC (S. pyogenes ATCC 12344): ≤ 0.003 µg/mL
- MIC (S. aureus ATCC 29123; CLSI-consistent value, 0.002% polysorbate 80): 0.06 µg/mL (≈ 0.033 µM)
- MIC (S. aureus ATCC 29123; dilutions in contact with plastic for as little as 30 min before inoculation with surfactant-containing media): 2 to 8 µg/mL
- half-life ([3]; estimated): 220 to 288 h
- MIC (E. faecalis ATCC 29212): 0.125 µg/mL (≈ 0.0688 µM)
- MIC [4]: 0.125 µg/mL (≈ 0.0688 µM)
- MIC (MRSA ATCC 43300; Corning flat TC plate, MHB −T80, no additive): 4 µg/mL (≈ 2.2 µM)
- MIC (MRSA ATCC 43300; Trek PS, MH + 2% LHB, 2% LS): 0.125 µg/mL
- MIC (MRSA ATCC 43300; Trek PS, MH + 2% LHB, no additive): 0.125 µg/mL

Source: publication PMC6325200, “Effects of Microplate Type and Broth Additives on Microdilution MIC Susceptibility Assays” (Antimicrobial Agents and Chemotherapy, 2018)
